Results: patent US20090082435A1, “Methods, Compositions, And Compounds For Modulation Of Monoacylglycerol Lipase, Pain, And Stress-Related Disorders” (The Regents of the University of California, priority 2005, published 2009)

Experiments:
[1] = test system: stress-induced analgesia in rats; experiment: non-opioid stress-induced analgesia: foot shock, then tail-flick test; format: in vivo, rat
native rat brain MGL = biological target: T1, native rat brain MGL (Rattus norvegicus, UniProt Q8R431); experiment: MGL activity assay, rat brain cytosol, 2-monooleoylglycerol substrate; format: biochemical; details: for effect on rat brain MGL activity in vitro: FIG. 3b
T1 construct: from tissue; host or cells: Wistar rat brain, cytosol fraction
T1 sequence (Q8R431 1-303): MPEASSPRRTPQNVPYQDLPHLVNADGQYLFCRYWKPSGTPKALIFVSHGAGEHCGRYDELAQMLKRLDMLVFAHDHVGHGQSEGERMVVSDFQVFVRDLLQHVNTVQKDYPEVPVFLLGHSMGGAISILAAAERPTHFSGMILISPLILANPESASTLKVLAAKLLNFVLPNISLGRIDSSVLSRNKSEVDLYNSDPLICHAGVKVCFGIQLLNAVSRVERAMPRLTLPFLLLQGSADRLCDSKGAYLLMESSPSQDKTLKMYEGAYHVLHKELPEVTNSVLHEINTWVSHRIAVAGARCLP

[2] = test system: organotypic slice cultures of rat forebrain; experiment: endocannabinoid content by LC/MS in organotypic brain slice cultures; format: cell-based; details: URB602 100 μM; for anandamide levels: URB597 1 μM
Procedure: Brain slice cultures. Brain slices were cultured from Wistar rats. Pups were sacrificed on post-natal day 5 by decapitation following cryo-anaesthesia. Brains were removed and cut (0.4 mm-thick coronal slices) using a vibratome in a bath of ice-cold high-glucose Dulbecco's Modified Eagle's Medium (Gibco). Hemispheres were placed on Millicell culture inserts (Millipore) in 6-well plates with serum-based culture medium (1.5 ml) composed of basal Eagle medium with Earle's salts (100 ml), Earle's balanced salt solution (50 ml), heat-inactivated horse serum (50 ml), L-glutamine (0.2 mM, 1 ml) and 50% glucose (2 ml) (Gibco). Slices were maintained at 37° C. with 5% CO2 for 7 days before use.
(§1) Lipid extractions and LC/MS analyses. Ex vivo experiments. Rats were habituated to the guillotine for at least 7 days prior to the experiment and sacrificed them either before or various times (2, 7, 15 and 25 min) after a 3-min foot shock (n=10 per group). The brains were rapidly removed, dissected and stored frozen (−80° C.) until lipid extraction. In vitro experiments. […] In some experiments, slices were incubated with ionomycin (2 μM) in DMEM for additional 15 min. Reactions were stopped and washed with ice-cold 50% methanol (1 ml). Slices were collected in the same medium (0.2 ml) and homogenized. Brain tissue (≈50 mg) and slice homogenates were suspended in methanol (2 ml) containing [^2H]-containing internal standards (25 pmol). Lipids were extracted in methanol-chloroform-H2O (1:2:0.25). The organic phase was recovered, evaporated to dryness, reconstituted in chloroform/methanol (1:3, 80 μL) and subjected to LC/MS analysis as described (Giuffrida, A. et al., Anal. Biochem. 280:87-93 (2000)).

[3] = test system: tail-flick latencies in rats; experiment: tail-flick test without stressor: basal thresholds, agonist antinociception; format: in vivo, rat; details: for basal nociceptive threshold (tail-flick latencies) in absence of stressor: same doses and routes as in stress analgesia tests; for drug's own antinociceptive effects after repeated daily injections: prior to foot shock, WIN55,212-2 14 days, morphine 7 days
cyclooxygenase (Cox)-2 = biological target: T2, cyclooxygenase (Cox)-2 (Homo sapiens, UniProt P35354); experiment: cyclooxygenase assay, commercial kit with purified enzymes; format: biochemical
T2 construct: purchased Cayman Chemicals, Ann Arbor, Mich
T2 sequence (P35354 18-604): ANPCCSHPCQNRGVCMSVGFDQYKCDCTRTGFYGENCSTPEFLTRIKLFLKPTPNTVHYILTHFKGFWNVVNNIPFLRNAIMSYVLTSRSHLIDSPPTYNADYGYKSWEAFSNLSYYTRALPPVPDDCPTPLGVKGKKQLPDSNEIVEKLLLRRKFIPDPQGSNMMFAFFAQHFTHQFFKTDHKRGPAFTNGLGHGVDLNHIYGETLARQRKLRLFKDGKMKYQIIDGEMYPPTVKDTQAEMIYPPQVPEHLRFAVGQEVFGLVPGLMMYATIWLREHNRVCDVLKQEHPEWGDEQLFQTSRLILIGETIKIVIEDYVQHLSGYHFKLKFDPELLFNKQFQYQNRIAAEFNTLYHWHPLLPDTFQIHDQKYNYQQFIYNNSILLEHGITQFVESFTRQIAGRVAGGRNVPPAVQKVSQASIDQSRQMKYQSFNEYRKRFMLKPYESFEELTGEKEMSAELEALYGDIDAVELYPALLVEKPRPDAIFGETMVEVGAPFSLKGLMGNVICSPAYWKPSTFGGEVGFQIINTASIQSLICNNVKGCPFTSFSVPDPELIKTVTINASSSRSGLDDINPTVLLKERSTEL

rat cerebellar membranes = experiment: [35S]-GTP-γ-S binding to rat cerebellar membranes; format: biochemical; details: data not shown; read-out: half-maximal effective concentration (EC50), [35S]-GTP-γ-S binding
[4] = test system: 2-AG and anandamide levels in rat brain; experiment: ex vivo brain endocannabinoid levels by LC/MS after PAG microinjection and foot shock; format: in vivo
Procedure: as §1

PLD = experiment: phospholipase D activity assay; format: biochemical, S. chromofuscus
phospholipase C (PLC) = phospholipase C (PLC) (Bacillus cereus, UniProt P09598); experiment: phospholipase C activity assay; format: biochemical, B. cereus
rat brain FAAH = biological target: T3, rat brain FAAH (Rattus norvegicus, UniProt P97612); experiment: FAAH activity assay, rat brain membranes, anandamide substrate; format: biochemical; details: FIG. 3c
T3 construct: from tissue; host or cells: Wistar rat brain, membrane fraction
T3 sequence (P97612 1-579): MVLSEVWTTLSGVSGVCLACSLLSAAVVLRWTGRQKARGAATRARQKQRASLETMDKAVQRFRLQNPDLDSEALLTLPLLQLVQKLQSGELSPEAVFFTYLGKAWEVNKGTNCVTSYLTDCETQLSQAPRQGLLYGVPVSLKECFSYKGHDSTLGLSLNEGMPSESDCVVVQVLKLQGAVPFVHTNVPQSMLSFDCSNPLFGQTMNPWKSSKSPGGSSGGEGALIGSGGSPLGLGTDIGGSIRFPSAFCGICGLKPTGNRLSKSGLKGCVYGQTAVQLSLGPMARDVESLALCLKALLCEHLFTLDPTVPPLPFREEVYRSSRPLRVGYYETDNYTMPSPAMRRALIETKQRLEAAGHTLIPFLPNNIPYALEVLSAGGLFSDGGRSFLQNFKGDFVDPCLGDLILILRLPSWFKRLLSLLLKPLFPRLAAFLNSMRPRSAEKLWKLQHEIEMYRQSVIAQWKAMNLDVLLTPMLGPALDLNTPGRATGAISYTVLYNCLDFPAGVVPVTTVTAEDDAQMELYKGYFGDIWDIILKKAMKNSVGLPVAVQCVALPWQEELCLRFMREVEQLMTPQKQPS

[5] = test system: diacylglycerol lipase (DGL); experiment: DGL activity assay, rat brain protein, [3H]dioleoylglycerol; format: biochemical
[6] = URB602 0.1 nmol in PAG, 25 min after shock

Chain of phospholipase C (PLC) (P09598 39-283 limits assumed): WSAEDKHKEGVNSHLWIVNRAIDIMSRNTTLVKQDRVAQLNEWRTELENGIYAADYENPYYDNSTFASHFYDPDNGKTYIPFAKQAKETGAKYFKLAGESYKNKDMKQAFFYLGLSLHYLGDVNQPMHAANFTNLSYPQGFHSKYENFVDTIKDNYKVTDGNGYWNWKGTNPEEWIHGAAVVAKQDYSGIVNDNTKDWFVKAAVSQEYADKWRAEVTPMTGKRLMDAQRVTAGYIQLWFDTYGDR

Cc1c(C(=O)NN2CCCCC2)nn(-c2ccc(Cl)cc2Cl)c1-c1ccc(I)cc1 [AM251]
effect of antagonist on stress-induced analgesia, systemic ([1]; rat, in vivo, ip): almost abolished

NC(=O)c1cccc(-c2cccc(OC(=O)NC3CCCCC3)c2)c1 [URB597]
effect on rat brain MGL activity in vitro (native rat brain MGL): no effect | anandamide levels [2]: markedly elevated | basal nociceptive threshold (tail-flick latencies) in absence of stressor [3]: did not modify | effect on stress-induced analgesia, URB597 in dorsolateral PAG ([1]; rat, in vivo): significant potentiation | effect on stress-induced analgesia, URB597 systemic ([1]; rat, in vivo, ip): significant potentiation

O=C(Nc1cccc(-c2ccccc2)c1)OC1CCCCC1 [URB602, biphenyl-3-yl carbamic acid cyclohexyl ester]
effect on Cox-2 activity (cyclooxygenase (Cox)-2): did not affect | EC50 (rat cerebellar membranes): > 100 µM | effect on rat brain MGL activity in vitro (native rat brain MGL): inhibits | IC50 (native rat brain MGL; broken cell preparations, read-out: half-maximal concentration (IC50) for inhibition of MGL): 28 ± 4 µM | mechanism of MGL inhibition (native rat brain MGL; kinetic analyses): non-competitive | Vmax of MGL with URB602 (native rat brain MGL; n=4, without URB602 1814±51): 541±20 nmol-min-mg^−1 protein | 2-AG content in midbrain fragments vs untreated controls [4, 6]: significantly higher | anandamide levels in midbrain vs untreated controls [4, 6]: identical | 2-AG and anandamide concentrations in occipital cortex ([4]; URB602 injection into the PAG): not affected | basal 2-AG levels [2]: significantly increased | anandamide levels [2]: did not modify | 2-AG accumulation elicited by ionomycin ([2]; ionomycin 2 μM): enhanced | basal nociceptive threshold (tail-flick latencies) in absence of stressor [3]: without altering | effect on PLD activity (PLD): did not affect | effect on PLC activity (phospholipase C (PLC)): did not affect | effect on rat brain FAAH activity (rat brain FAAH): does not affect | effect on stress-induced analgesia, URB602 in dorsolateral PAG ([1]; 0.1 nmol microinjection): enhanced | effect on stress-induced analgesia, URB602 in ventrolateral PAG ([1]; 0.1 nmol microinjection): enhanced | effect on DGL activity [5]: did not affect

Cc1c(C(=O)c2cccc3ccccc23)c2cccc3c2n1[C@H](CN1CCOCC1)CO3 [WIN55, 212-2]
drug's own antinociceptive effects after repeated daily injections [3]: decrease | stress-induced analgesia in rats made tolerant to the agonist ([1]; rat, in vivo): marked reduction

CN1CC[C@]23c4c5ccc(O)c4O[C@H]2[C@@H](O)C=C[C@H]3[C@H]1C5 [morphine]
mean tail-flick latency after morphine, cannabinoid tolerant rats ([3]; morphine 2.5 mg-kg^−1 s.c., rats tolerant to WIN55,212-2, n=6-7): 6.09 ± 1.93 s | mean tail-flick latency after morphine, control rats ([3]; morphine 2.5 mg-kg^−1 s.c., vehicle-treated controls, n=6-7): 5.33 ± 0.21 s | drug's own antinociceptive effects after repeated daily injections [3]: decrease | stress-induced analgesia in rats made tolerant to the agonist ([1]; rat, in vivo): normal degree

O=C1CC[C@@]2(O)[C@H]3Cc4ccc(O)c5c4[C@@]2(CCN3CC2CC2)[C@H]1O5 [naltrexone]
effect of antagonist on stress-induced analgesia, systemic ([1]; rat, in vivo, ip): insensitive

Cc1c(C(=O)NN2CCCCC2)nn(-c2ccc(Cl)cc2Cl)c1-c1ccc(Cl)cc1 [rimonabant]
basal nociceptive threshold (tail-flick latencies) in absence of stressor [3]: does not alter | effect of low-dose rimonabant alone on stress analgesia ([1]; 0.2 nmol in PAG): insufficient to reverse | rimonabant effect on MAFP enhancement of stress analgesia ([1]; co-injection, rimonabant 0.2 nmol): blocked | effect of antagonist on stress-induced analgesia, systemic ([1]; i.p., naltrexone 14 mg-kg^−1, rimonabant, AM251, SR144528 5 mg-kg^−1): almost abolished | rimonabant effect on URB602 enhancement of stress analgesia ([1]; local co-administration in PAG, rimonabant 0.2 nmol): prevented | effect on stress-induced analgesia, ventrolateral PAG ([1]; rimonabant 2 nmol): inactive | effect on stress-induced analgesia, dorsolateral PAG ([1]; rimonabant 2 nmol microinjected): significantly reduced | rimonabant effect on URB597 potentiation of stress analgesia ([1]; rimonabant 1 mg-kg^−1 i.p., 0.2 nmol in the PAG): prevented | rimonabant effect on VDM11 enhancement of stress analgesia ([1]; rimonabant 2 mg-kg^−1 i.p.): blocked | effect on stress-induced analgesia, lateral ventricle ([1]; rimonabant 2-10 nmol): ineffective
